In this experiment the target is methemoglobin (metHb, human hemoglobin, Fe(III) form) (Homo sapiens, UniProt P68871+P69905).

Each structure is given as a SMILES string.

Sequence of methemoglobin (metHb, human hemoglobin, Fe(III) form) (P69905 2-142): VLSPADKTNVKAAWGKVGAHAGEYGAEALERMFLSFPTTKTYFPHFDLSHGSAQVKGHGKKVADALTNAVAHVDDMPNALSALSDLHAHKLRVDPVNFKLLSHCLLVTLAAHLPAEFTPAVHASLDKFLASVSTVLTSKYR
Sequence of methemoglobin (metHb, human hemoglobin, Fe(III) form) (P68871 2-147): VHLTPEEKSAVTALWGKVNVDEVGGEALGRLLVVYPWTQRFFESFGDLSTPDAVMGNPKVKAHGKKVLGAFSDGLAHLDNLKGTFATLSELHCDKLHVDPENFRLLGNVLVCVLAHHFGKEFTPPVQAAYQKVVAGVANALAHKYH

In the case of `O=NO` [nitrite], the Kd (usually the equilibrium constant for the complex coming apart) was determined as 1.24 ± 0.5 mM.

The values are drawn from article PMC4498954 (Inorganic chemistry, 2010).
